From patent US9988372B2, “Crystalline form of 5-chloro-N-({(5S)-2-oxo-3-[4-(5,6-dihydro-4H-[1,2,4]triazin-1-yl)phenyl]-1,3-oxazolidin-5-yl}methyl)thiophene-2-carboxamide methanesulfonate and pharmaceutical composition comprising same” (GREEN CROSS CORPORATION, priority 2014, dated 2018) come the findings set out here.

Common to all, as to type: physicochemical
A short description of data set [1]: Stability in solvent slurry system (interconversion of crystalline forms, final form identified by DSC). Particulars: for Final form (DSC peak): slurry; for Interconversion of crystalline form while stirred in solvent: stirred in the solvent for 24 hours, various solvents (summary of Table 4). How it is done:
1) Measurement of Stability in Solvent Slurry System
In order to determine whether one crystalline form is interconverted into another crystalline form in a stirred solvent, a slurry test was performed in different solvents at room temperature.
First, an automated polyblock reactor was filled with each of the solvents listed in Table 4 below at room temperature (30±5° C.). […] Thereafter, an anti-solvent listed in Table 4 below (n-butanol or IPA) was added into the reactor for 30±15 minutes and stirred for 30±15 minutes until a transparent solution was obtained. The resultant was cooled to a temperature of 0±5° C., stirred for 2-3 hours, and then filtered at 0±5° C. The obtained material was dried at 60±5° C. for 3 to 4 hours in VTD, and then DSC analysis was performed for the obtained sample to identify the final crystalline form.
DSC analysis was performed for the obtained sample to identify the final crystalline form.
(DSC measures the heat that a sample takes up or gives off during a temperature scan.)

The nature of data set [2]: Interconversion at high temperature (final form identified by DSC). Conditions: for Final form (DSC peak): dried at 80±5° C. in non-vacuum state, then cooled to 30±5° C., methanesulfonate; for Stability at high temperature: summary of Table 5. How it is done:
2) Measurement of Interconversion at High Temperature
In order to determine the interconversion of crystalline forms at a high temperature, each of Crystalline Forms 1 and 5 was dried at 80±5° C. in non-vacuum state, and then cooled to a temperature of 30±5° C. DSC analysis was performed for the obtained samples to identify the final crystalline form.

A short description of data set [3]: Stability under physical stimulus (multi-milling, manual grinding, humidification; final form identified by DSC). Conditions: methanesulfonate; for Stability under physical stimulus: milling, grinding and humidification (summary of Table 6). How it is done:
3) Measurement of Stability Under Physical Stimulus
Multi-milling, manual grinding and humidification test were performed for the crystalline forms of the present invention to confirm their stability under physical stimulus. For multi-milling test, each of Crystalline Forms 1 and 5 was milled at 3,000 rpm by using a prototype multi-mill instrument (Sreenex Machines Pvt. Ltd.). For manual grinding, each of the crystalline forms was gradually ground by using a pestle and mortar. In the humidification test, Crystalline Forms 1 and 5 were stored at 30° C. and 90% RH for 24 hours.
DSC analysis was performed for the crystalline forms obtained from the tests to identify the final crystalline form.

A short description of data set [4]: Solubility in methanol solvent. Conditions: in the methanol solvent; methanesulfonate.
Protocol: The solubility of each of Crystalline Forms 1 and 5 of the present invention was measured after being dissolved in the methanol solvent.
Data set [5] is described as follows: Stability in solvent slurry system (interconversion of crystalline forms, final form identified by DSC). Particulars: Dimethyl acetamide: EA, solvent 3 vol, anti-solvent 20 vol.
The mark [6] stands for this setting: Methanol: IPA, solvent 7 vol, anti-solvent 20 vol, methanesulfonate.
The mark [7] stands for this setting: Methanol: n-butanol, solvent 7 vol, anti-solvent 20 vol, methanesulfonate.
The mark [8] stands for this setting: solvent system Acetonitrile 10 vol, no anti-solvent, methanesulfonate.
The mark [9] stands for this setting: solvent system Isopropyl alcohol (IPA) 10 vol, no anti-solvent, methanesulfonate.

Entries after “also recorded” stand apart in the source; their conditions may differ.

Broadly, the solubility is the concentration that dissolves in the medium under given conditions. Lower therefore signals little dissolved substance. As to `O=C(NC[C@H]1CN(c2ccc(N3CCNC=N3)cc2)C(=O)O1)c1ccc(Cl)s1` [Crystalline Form 5, 5-chloro-N-({(5S)-2-oxo-3-[4-(5,6-dihydro-4H-[1,2,4]triazin-1-yl)phenyl]-1,3-oxazolidin-5-yl}methyl)thiophene-2-carboxamide methanesulfonate], the “Final form (DSC peak)” value in data set [1] (setting [6]) is listed as “Crystalline Form 5 (186.80)”; in data set [1] (setting [7]) it was “Crystalline Form 5 (186.27)”; in data set [1] (setting [8]), “Crystalline Form 5 (186.88)”; in data set [1] (solvent system Ethyl acetate (EA) 10 vol, no anti-solvent), “Crystalline Form 5 (186.48)”; in data set [1] (solvent system Heptane 10 vol, no anti-solvent), “Crystalline Form 5 (186.44)”; in data set [1] (setting [9]), “Crystalline Form 5 (186.33)”. Moreover, the “Final form (DSC peak)” value in data set [1] (solvent system Methyl tert-butyl ether (MTBE) 10 vol, no anti-solvent) is listed as “Crystalline Form 5 (186.45)”; in data set [1] (solvent system n-butanol 10 vol, no anti-solvent), “Crystalline Form 5 (186.76)”; in data set [2] it was “Crystalline Form 5 (187.0)”; in data set [5], “Crystalline Form 5 (187.05)”. Also, the “Interconversion of crystalline form while stirred in solvent” value in data set [1] (methanesulfonate) is listed as “maintains the initial form”. Moreover, the “Stability at high temperature” value in data set [2] is recorded as “stable at high temperature”. For the same compound, in data set [3], the “Stability under physical stimulus” value was “stability without change of crystalline forms; also recorded: stable under physical stimulus”. The same compound showed a solubility in data set [4] of 30 mg/mL.

With `O=C(NC[C@H]1CN(c2ccc(N3CCNC=N3)cc2)C(=O)O1)c1ccc(Cl)s1` [Crystalline Form 1, 5-chloro-N-({(5S)-2-oxo-3-[4-(5,6-dihydro-4H-[1,2,4]triazin-1-yl)phenyl]-1,3-oxazolidin-5-yl}methyl)thiophene-2-carboxamide methanesulfonate], the “Final form (DSC peak)” value is on record as “Mixed crystalline forms” in data set [1] (setting [6]); “Crystalline Form 5 (187.7)” in data set [1] (setting [7]); “Mixed crystalline forms” in data set [1] (setting [8]); “Mixed crystalline forms” in data set [1] (solvent system Hexane 10 vol, no anti-solvent); “Crystalline Form 5 (187.0)” in data set [1] (setting [9]); “Crystalline Form 1 (178.0)” in data set [2]. The “Interconversion of crystalline form while stirred in solvent” value in data set [1] (methanesulfonate) is “tends to convert into Crystalline Form 5”. Further, in data set [2], the “Stability at high temperature” value is “stable at high temperature”. The Final form entry in data set [3] (Humidification, stored at 30° C. and 90% RH for 24 hours) was “Crystalline Form 1”; in data set [3] (Manual grinding with pestle and mortar) it was “Crystalline Form 1”; in data set [3] (Multi-milling at 3,000 rpm) it was “Crystalline Form 1”. Further, the “Stability under physical stimulus” value in data set [3] is given as “stability without change of crystalline forms; also recorded: stable under physical stimulus”. The compound also returned a solubility in data set [4] of 70 mg/mL.
